The values below are quoted from earlier work in US20250352520A1, “USE OF DEXPRAMIPEXOLE FOR THE TREATMENT OF EOSINOPHILIC COPD” (Areteia Therapeutics, Inc., priority 2024, published 2025).

For this data set the following is noted: 150 mg BID; participants with ALS and EADs; cited from earlier work.

With `CCCN[C@@H]1CCc2nc(N)sc2C1` [Dexpramipexole, (6R)-2-amino-4,5,6,7-tetrahydro-6-(propylamino)benzothiazole], the safety profile entry was “favorable safety profile”.
